The values below come from PMC12610503, “The Molecular Mechanism of PDE1 Regulation” (Cells, 2025).

Data set [1] relates to PDE1/4 chimera (PDE1B regulatory domain fused to the PDE4D catalytic domain). Nature of the data set: PDE4 inhibitor inhibition of the PDE1/4 chimera (SPA). It is filed as biochemical, human. The note with it: [3H]-cAMP; for Inhibition of PDE1/4 chimera activity (in words) / Rolipram potency on PDE1/4 chimera relative to PDE4D catalytic domain (in words) / Rolipram affinity/potency boost on calcium/calmodulin-activated PDE1/4 chimera (in words): pH 7.2, 1 h, room temperature; for Rolipram potency on PDE1/4 chimera relative to PDE4D catalytic domain (in words): IC50, 3–5 independent experiments, without calcium/calmodulin activation; for Rolipram affinity/potency boost on calcium/calmodulin-activated PDE1/4 chimera (in words): chimera activated by calcium/calmodulin. The source says:
(§1) Human PDE1B1 (Refseq: NM_000924.4) and its N-terminal deletion constructs were cloned into BamH1 and Xho1 sites of pcDNA3.1(+) using PCR. The stated boundary and amino acid positions for mutants and deletion constructs are based on the PDE1B1 isoform (Refseq: NP_000915). For all N-terminal constructs, a start codon was introduced upstream of the indicated boundary, resulting in a methionine preceding the amino acid specified by the N-terminal boundaries. Point mutations and internal deletions were generated using the QuickChange^TM site-directed mutagenesis method, as previously described. The PDE1B-PDE4D chimera was generated by inserting the human PDE4D catalytic domain with a PCR-introduced N-terminal BspE1 site into a pcDNA3.1-PDE1B (82-end) construct using an internal BspE1 site at the junction of the regulatory and catalytic domain and an Xho1 site downstream of the stop codon. All constructs were validated through sequencing. Maps and sequences are available upon request. Alignments were generated using Geneious Prime (v 2024.0.7). Amino acids are colored according to the RasMol color scheme, and similarities are indicated according to the BLOSUM substitution matrix.
Plasmids were transiently transfected into HEK293 cells using Lipofectamine 2000 (Thermo Fisher, Waltham, MA, USA) according to the manufacturer’s instructions. For each well of a 6-well plate, 5 µg plasmid and 10 µL Lipofectamine 2000 were used.
Next, 48 h after transfection, cells were washed once with ice-cold PBS, scraped off into 2 mL PBS, and pelleted via centrifugation at 700× g for 5 min at 4 °C. The resulting cell pellet was frozen. Later, the pellet was thawed and resuspended in 0.5 mL of lysis buffer 50 mM Tris-HCL (pH 8.0) (Sigma-Aldrich, T3253, St. Louis, MO, USA), 1 mM MgCl2, and Complete ULTRA protease inhibitor cocktail (Roche, 05892970001, Basel, Switzerland). The lysate was then centrifuged at 20.000× g for 10 min at 4 °C to remove nuclei and membranes. Then, 0.05% Tween20 (Sigma-Aldrich, P2287) (final concentration) was added to the supernatant containing the cytosolic PDE1 before it was aliquoted and snap frozen.
PDE activity was measured using a scintillation proximity assay (SPA)-based method, similar to that previously described. Briefly, assays were conducted in 96-well plates using a buffer containing 40 mM Hepes (pH 7.2), 140 mM KCl, and 1.5 mM MgCl2. In each well, 0.005–0.05 µL PDE lysate was mixed with or without final concentrations of 50 µM CaCl2 and 50 nM calmodulin (Sigma-Aldrich, P1431) in a volume of 55 µL, and allowed to stand for 5 min at room temperature. Lysate amounts were adjusted to ensure that less than 30% of the tritiated substrate was hydrolyzed. Next, 10 µL tritiated cyclic nucleotide substrate ([3H]-cGMP for PDE1 and [3H]-cAMP for PDE4 and the PDE1/4 chimera) was added, and the reaction was allowed to proceed for 1 h at room temperature before 15 µL of 8 mg/mL phosphodiesterase SPA beads (Perkin Elmer, RPNQ0150, Shelton, CT, USA) was added. After another hour at room temperature to allow binding of the reaction products to the beads, the plates were counted for 2 min using a liquid scintillation counter (Wallac Trilux, Turku, Finland). […] To avoid overestimating inhibition, PEP1-sol was also tested by adding it after reaction termination (i.e., after SPA bead addition) in concentration–response experiments, and pre-addition inhibition minus post-addition (apparent) inhibition at each concentration was used for IC50 calculations.
To test whether the regulatory domains are functionally transferable, we generated and expressed a PDE1/4 chimera with the regulatory domain from PDE1B fused to the catalytic domain from PDE4D (Figure S1).

Data set [2] has as its system PDE4 UCR2-containing isoforms. Particulars: cited from earlier work. From the text: For PDE4, the longer isoforms that contain the N-terminal upstream conserved regions (UCR1 and UCR2) are activated by phosphorylation via the cAMP-activated protein kinase A (PKA), providing feedback regulation. […] To test whether the regulatory domains are functionally transferable, we generated and expressed a PDE1/4 chimera with the regulatory domain from PDE1B fused to the catalytic domain from PDE4D (Figure S1). […] Rolipram is a selective PDE4 inhibitor with higher potency towards PD ...

The test system of a further data set is PDE1B_82–501. Briefly: Calcium/calmodulin activation of PDE1B_82–501 (SPA). It is filed as biochemical, human. Particulars: 50 nM calmodulin and 50 µM CaCl2; deletion of 35 amino acids from C-terminal.
From the text: as §1, with “Alignments were generated using Geneious Prime (v 2024.0.7). Amino acids are colored according to the RasMol color scheme, and similarities are indicated according to the BLOSUM substitution matrix.” left out
(§2) PDE activity was measured using a scintillation proximity assay (SPA)-based method, similar to that previously described. […] After another hour at room temperature to allow binding of the reaction products to the beads, the plates were counted for 2 min using a liquid scintillation counter (Wallac Trilux, Turku, Finland). […] Since absorbance was low, this had only a minor impact on IC50 estimates. […]

The target of data set [3] is T1, PDE1B catalytic domain (PDE1B-cata) (Homo sapiens, UniProt Q01064).
T1 construct: compared to the PDE1B catalytic domain (PDE1B-cata; 146–536); added initiator methionine (single Met before residue 146); made in house; host or cells: HEK293 cells, transiently transfected with pcDNA3.1(+) construct; cleared cytosolic lysate used, not purified
Nature of the data set: Inhibition of PDE1B-cata enzyme activity by inhibitory domain peptides added in trans (SPA). It counts as biochemical. The note with it: [3H]-cGMP, pH 7.2, 1 h, room temperature, post-addition (apparent) inhibition subtracted, average ± SEM from 3 independent experiments.
From the text: as §1, with “Alignments were generated using Geneious Prime (v 2024.0.7). Amino acids are colored according to the RasMol color scheme, and similarities are indicated according to the BLOSUM substitution matrix.” left out
as §2

The nature of data set [4]: Solubility of inhibitory domain peptides. It is filed as physicochemical.

“Also recorded” adds a separate entry of the source. Ends that are not written are not given here.

T1 sequence (Q01064 146-536): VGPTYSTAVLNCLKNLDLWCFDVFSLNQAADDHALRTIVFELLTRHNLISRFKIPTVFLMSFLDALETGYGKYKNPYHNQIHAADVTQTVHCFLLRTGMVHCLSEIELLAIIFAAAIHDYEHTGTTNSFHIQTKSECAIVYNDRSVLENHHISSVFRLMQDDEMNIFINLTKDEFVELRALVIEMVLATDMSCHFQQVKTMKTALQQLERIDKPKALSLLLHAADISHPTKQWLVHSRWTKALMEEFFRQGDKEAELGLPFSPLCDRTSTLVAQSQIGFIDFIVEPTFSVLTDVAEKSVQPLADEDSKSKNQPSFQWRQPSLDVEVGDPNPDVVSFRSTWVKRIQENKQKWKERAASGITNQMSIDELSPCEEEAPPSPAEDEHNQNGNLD

For `O=C(Nc1c(Cl)cncc1Cl)c1ccc(OC(F)F)c(OCC2CC2)c1` [roflumilast], the “Effect of calcium/calmodulin activation on roflumilast IC50 towards chimera (in words)” value in data set [1] (3-4 independent experiments) is given as “unaffected by”. Moreover, in data set [1] (3-4 independent experiments, one-way ANOVA with Sidak's), the “Roflumilast IC50 towards chimera compared with PDE4Dcata (in words)” value is “not significantly different from PDE4D catalytic domain”. Further, the “Inhibition of PDE1/4 chimera activity (in words)” value in data set [1] is on record as “could be inhibited; also recorded: inhibits the PDE1/4 chimera”.

For the compound `COc1ccc(C2CNC(=O)C2)cc1OC1CCCC1` (stereo not shown) [rolipram], in data set [1], the “Inhibition of PDE1/4 chimera activity (in words)” value is “could be inhibited”, the “Rolipram potency on PDE1/4 chimera relative to PDE4D catalytic domain (in words)” value is “inhibited the PDE1/4 chimera more potently than the PDE4D catalytic domain” and the “Rolipram affinity/potency boost on calcium/calmodulin-activated PDE1/4 chimera (in words)” value was “affinity boost was lost when the chimera was activated by calcium/calmodulin”. In data set [1] (listed as Rolipram), the “Rolipram potency on PDE1/4 chimera relative to PDE4D catalytic domain (in words)” value is listed as “inhibits the PDE1/4 chimera more potently than the PDE4D catalytic domain alone” and the “Rolipram affinity/potency boost on calcium/calmodulin-activated PDE1/4 chimera (in words)” value is “increased potency is lost upon activation of the chimera by calcium/calmodulin”. Moreover, the “Rolipram affinity for UCR2-containing isoforms compared to the catalytic domain alone (in words)” value in data set [2] (compared to the catalytic domain alone) is on record as “higher affinity”. Also, the “Rolipram potency towards PDE4 isoforms containing regulatory domains (in words)” value in data set [2] (selective PDE4 inhibitor) is reported as “higher potency towards PDE4 isoforms containing regulatory domains”.

Consider calmodulin, for which, in the data set on PDE1B_82–501, the “Calmodulin regulation of PDE1B_82–501 (in words)” value was “no impact on calmodulin regulation of activity”.

On to SDEVPSEVRDWLASTFTRQ [PEP1-sol], for which the IC50 in data set [3] came out at 17.9 ± 2.1 µM. Further, the “Solubility (in words)” value in data set [4] is on record as “more soluble variant”.

The IC50 is the midpoint of a concentration-inhibition curve.
